As a reminder, the IC50 is the midpoint of a concentration-inhibition curve.

We go through 6 compounds from patent publication US7417030B2, “Indazole peptidomimetics as thrombin receptor antagonists” (Ortho-McNeil Pharmaceutical, Inc., priority 1999, dated 2008).

The target of assay [1] is T1, Thrombin receptor (PAR-1) (Homo sapiens, UniProt P25116).
T1 construct: CHRF membranes (Jones, Biochim. Biophys. Acta 1992, 1136, 272) are thawed from −70° C; endogenous in cells; host or cells: CHRF cell membranes
T1 sequence (P25116 22-425): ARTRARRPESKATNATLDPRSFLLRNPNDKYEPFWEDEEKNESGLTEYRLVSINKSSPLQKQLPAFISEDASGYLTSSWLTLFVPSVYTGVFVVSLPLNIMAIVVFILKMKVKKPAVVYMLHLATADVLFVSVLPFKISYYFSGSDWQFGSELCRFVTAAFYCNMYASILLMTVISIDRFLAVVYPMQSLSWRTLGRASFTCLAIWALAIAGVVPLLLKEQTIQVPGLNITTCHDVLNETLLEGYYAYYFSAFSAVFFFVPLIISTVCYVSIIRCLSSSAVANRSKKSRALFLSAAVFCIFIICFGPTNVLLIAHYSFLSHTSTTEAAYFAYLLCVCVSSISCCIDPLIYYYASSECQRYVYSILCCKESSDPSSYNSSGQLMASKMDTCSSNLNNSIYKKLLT
Description: In vitro thrombin receptor binding assay. Particulars: CHRF membranes; tritiated 721-40 (Ser-pFPhe-Har-Leu-Har-Lys-Tyr-NH2) radioligand; read-out: IC50 (μM) Thr Recptr Bdg. As for the experimental part:
In Vitro Thrombin Receptor Binding Assay
CHRF membranes (Jones, Biochim. Biophys. Acta 1992, 1136, 272) are thawed from −70° C., centrifuged at maximum speed for 5 min, washed twice with binding buffer (50 mM HEPES containing 5 mM MgCl2 and 0.1% BSA), and re-suspended in binding buffer (25 μg/[…]). 100 μL of membranes are added to the 24-Wallac plates and delivered to the Tomtech apparatus. In a typical experiment, 6 μL of samples (from a 125 μg/mL intermediary plate, 20% DMSO) and 44 μL buffer are delivered to the plates (final conc. of compounds is 3.7 μg/mL, 0.6% DMSO). Similarly, 6 μL 20% DMSO and 44 μL buffer are delivered to both column 1 (NSB) and column 12 (TB). […] Ser-pFPhe-Har-Leu-Har-Lys-Tyr-NH2 (SEQ. ID. No. 2) (721-40; 500 μM in deionized water) is added to column 1. 50 μL tritiated 721-40 (specific activity 46 Ci/mmol) is added to all the wells. The plates are mixed well for 20 seconds, incubated for 30 min, and then harvested with 10 mM HEPES/138 mM NaCl using the Skatron harvester. The filters (GF/C Brandel FPXLR 296) are presoaked 3 h in 0.5% polyethylenimine in HEPES/0.1M N-acetylglucosamine) are set in Saran™ wrap and dried for 3 min in the microwave, and placed in sample bags (Wallac 1450-432). 4.5 mL scintillation fluid (Wallac, Betaplate Scint 1205-440) is added. The bags are sealed, placed in filter cassettes (Wallac 1450-104), and analyzed on the microbeta counter.

Assay [2] relates to platelet aggregation stimulated by thrombin (gel-filtered platelets). Description: In vitro inhibition of thrombin-induced gel-filtered platelet aggregation assay. To be noted: thrombin-induced gel-filtered human platelet aggregation; agonist thrombin 50 μL of 1 unit/mL; read-out: IC50 (μM) Thr GFP Aggr. Format: cell-based. The method, then:
In Vitro Inhibition Of Thrombin-Induced Gel-Filtered Platelet Aggregation Assay
The percentage of platelet aggregation is calculated as an increase in light transmission of compound-treated platelet concentrate vs. control-treated platelet concentrate. Human blood is obtained from drug free, normal donors in tubes containing 0.13M sodium citrate. Platelet rich plasma (PRP) is collected by centrifugation of whole blood at 200×g for 10 min at 25° C. The PRP (5 mL) is gel filtered through Sepharose 2B (bed volume 50 mL), and the platelet count is adjusted to 2×10^7 platelets per sample. The following constituents are added to a siliconized cuvette: concentrated platelet filtrate and Tyrode's buffer (0.14M NaCl, 0.0027M KCl, 0.012M NaHCO3, 0.76 mM Na2HPO4, 0.0055M glucose, 2 mg/mL BSA and 5.0 mM HEPES @ pH 7.4) in an amount equal to 350 μL, 50 μL of 20 mM calcium and 50 μL of the test compound. Aggregation is monitored in a BIODATA aggregometer for the 3 min following the addition of agonist (thrombin 50 μL of 1 unit/mL).

For the compound `NCC[C@H](NC(=O)[C@H](Cc1ccc(F)c(F)c1)NC(=O)Nc1ccc2c(CN3CCCC3)nn(Cc3c(Cl)cccc3Cl)c2c1)C(=O)NCc1ccccc1` [Compound 1, Benzenepropanamide, N-[(1S)-3-amino-1-[[(phenylmethyl)amino]carbonyl]propyl]-α-[[[[[1-(2,6-dichlorophenyl)methyl]-3-(1-pyrrolidinylmethyl)-1H-indazol-6-yl]amino]carbonyl]amino]-3,4-difluoro-,(αS)-], the IC50 came out at 0.04 µM in assay [1] and 0.31 µM in assay [2].
For the compound `NCC[C@H](NC(=O)[C@H](Cc1ccc(Cl)cc1)NC(=O)Nc1ccc2c(CN3CCCC3)nn(Cc3c(Cl)cccc3Cl)c2c1)C(=O)NCc1ccccc1` [Compound 2, Benzenepropanamide, N-[(1S)-3-amino-1-[[(phenylmethyl)amino]carbonyl]propyl]-α-[[[[[1-(2,6-dichlorophenyl)methyl]-3-(1-pyrrolidinylmethyl)-1H-indazol-6-yl]amino]carbonyl]amino]-4-chloro-, (αS)-], the concentration for half-maximal inhibition (IC50) was determined as 20 µM in assay [1] and 0.26 µM in assay [2].
As for `NCCNC(=O)[C@H](Cc1ccncc1)NC(=O)[C@H](Cc1ccc(F)c(F)c1)NC(=O)Nc1ccc2c(CN3CCCC3)nn(Cc3c(Cl)cccc3Cl)c2c1` [Compound 3, L-Alaninamide, 3,4-difluoro-N-[[[1-[(2,6-dichlorophenyl)methyl]-3-(1-pyrrolidinylmethyl)-1H-indazol-6-yl]amino]carbonyl]-L-phenylalanyl-N-(2-aminoethyl)-3-(4-pyridinyl)-], the IC50 is 0.03 µM in assay [1] and 0.5 µM in assay [2].
In the case of `C[C@@H](NC(=O)[C@H](CCN)NC(=O)[C@H](Cc1ccc(F)c(F)c1)NC(=O)Nc1ccc2c(CN3CCCC3)nn(Cc3c(Cl)cccc3Cl)c2c1)c1ccccc1` [Compound 4], the IC50 in assay [1] amounted to 0.15 µM; in assay [2], 0.32 µM.
Regarding `NCC[C@H](NC(=O)[C@H](Cc1ccc(F)c(F)c1)NC(=O)Nc1ccc2c(CN3CCCC3)nn(Cc3c(Cl)cccc3Cl)c2c1)C(=O)N[C@H](CO)c1ccccc1` [Compound 5], the IC50 was 0.32 µM in assay [1] and 0.66 µM in assay [2].
For `NCCNC(=O)[C@H](Cc1cccs1)NC(=O)[C@H](Cc1ccc(Cl)cc1)NC(=O)Nc1ccc2c(CN3CCCC3)nn(Cc3c(Cl)cccc3Cl)c2c1` [Compound 6] the same measures were 5.8 µM and 0.3 µM.
